Reference: PubChem BioAssay (NCI)
“And” between values parts separate entries of the source, which are not always exact repeats. Identical values can stand only once.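 Step 1: Grow cells in 96-well plates. Step 2: Expose to compound for 48 hours at 5 concentrations. Step 3: Interpolate endpoints linearly; if unreached, use highest concentration. GI50 marks 50% less growth. TGI marks complete inhibition of growth.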

Assays:
Assay in all cases: NCI-60 cell line screen, 48 h
PC-3 prostate = tested on: PC-3 prostate
SK-MEL-2 melanoma = tested on: SK-MEL-2 melanoma
LOX IMVI melanoma = tested on: LOX IMVI melanoma
UACC-257 melanoma = tested on: UACC-257 melanoma
HCT-116 colon = tested on: HCT-116 colon
M14 melanoma = tested on: M14 melanoma
SF-539 CNS = tested on: SF-539 CNS
CAKI-1 renal = tested on: CAKI-1 renal
SK-OV-3 ovarian = tested on: SK-OV-3 ovarian
SF-295 CNS = tested on: SF-295 CNS

| Structure (SMILES) | GI50 (PC-3 prostate) | TGI (PC-3 prostate) | GI50 (SK-MEL-2 melanoma) | TGI (SK-MEL-2 melanoma) | GI50 (LOX IMVI melanoma) | TGI (LOX IMVI melanoma) | GI50 (UACC-257 melanoma) | TGI (UACC-257 melanoma) | GI50 (HCT-116 colon) | TGI (HCT-116 colon) | GI50 (M14 melanoma) | TGI (M14 melanoma) | GI50 (SF-539 CNS) | TGI (SF-539 CNS) | GI50 (CAKI-1 renal) | TGI (CAKI-1 renal) | GI50 (SK-OV-3 ovarian) | TGI (SK-OV-3 ovarian) | GI50 (SF-295 CNS) | TGI (SF-295 CNS) |
| --- | --- | --- | --- | --- | --- | --- | --- | --- | --- | --- | --- | --- | --- | --- | --- | --- | --- | --- | --- | --- |
| C=CCc1cc(Nc2c3ccc(Cl)cc3nc3ccc(OC)cc23)cc(CN(CC)CC)c1O | 1.04 µM | 4.73 µM | 1.9 µM | 4.93 µM | 1.23 µM | 2.58 µM | 2.21 µM | 9.27 µM | 0.365 µM | 1.97 µM | 1.9 µM | 5.3 µM | 2.45 µM | 9.16 µM | 2.4 µM | 11.1 µM | 1.9 µM | 6.62 µM | 0.938 µM | 5.17 µM |
| C[C@@H]1O[C@@H](O[C@@H]2[C@@H](O)[C@H](OCCc3ccc(O)c(O)c3)O[C@H](CO)[C@H]2OC(=O)/C=C/c2ccc(O)c(O)c2)[C@H](O)[C@H](OC2OC[C@](O)(CO)[C@H]2O)[C@H]1O (stereo not given in full) | 7.41 µM | > 100 µM | 52.6 µM | > 100 µM | 19.4 µM | 37 µM | 27 µM | 90.1 µM | 30.4 µM | 65.4 µM | > 100 µM | > 100 µM | > 100 µM | > 100 µM | 24.8 µM | 42.5 µM | > 100 µM | > 100 µM | > 100 µM | > 100 µM |
| Oc1cccc2c1NCCC2 | 0.119 µM | > 100 µM | 0.433 µM | 2.96 µM | 0.119 µM | > 36.7 µM | 1.12 µM | 5.83 µM | 0.1 µM | > 100 µM | 0.142 µM | 15.6 µM | 0.14 µM | > 47.3 µM | 2.24 µM | 16.6 µM | 0.891 µM | > 100 µM | 0.139 µM | > 22.6 µM |
| N/C(=N\OC(=O)c1ccccc1)C(Cc1ccccc1)C(=O)NOC(=O)c1ccccc1 (stereo not given) | 2.62 µM | 7.2 µM | 2.16 µM | 4.17 µM | 1.46 µM | 3.68 µM | 5.32 µM | 18.5 µM | 1.66 µM | 3.38 µM | 3.12 µM | 10.8 µM | 1.84 µM | 3.99 µM | 1.28 µM | 2.97 µM | 5.48 µM | 18.2 µM | 1.38 µM | 3.1 µM |
| CN1CCc2nc3sc(C(N)=O)c(N)c3c(-c3cccs3)c2C1 | 4.58 µM | > 100 µM | 2.67 µM | 6.22 µM | 1.27 µM | > 100 µM | 4 µM | > 100 µM | 2.31 µM | > 100 µM | 4.19 µM | 19.4 µM | 2.35 µM | 6.79 µM | 2.82 µM | > 100 µM | 3.35 µM | > 100 µM | 3.61 µM | > 100 µM |
| Cc1cc(C)c(C2CNCc3cc4c(cc32)CNCC4c2c(C)cc(C)cc2C)c(C)c1 (stereo not given) | 5.67 µg/mL | 15.6 µg/mL | 2.92 µg/mL | 7.4 µg/mL | 1.85 µg/mL | 4.31 µg/mL | 1.83 µg/mL | 4.27 µg/mL | 2.38 µg/mL | 6.14 µg/mL | 1.83 µg/mL | 3.28 µg/mL | 2.23 µg/mL | 3.85 µg/mL | 4.22 µg/mL | 13.6 µg/mL | 10.2 µg/mL | 21.8 µg/mL | 3.44 µg/mL | 13.1 µg/mL |
| Oc1c(-c2cc(C(F)(F)F)[nH]n2)cc(Cl)c(OCc2ccc(Cl)cc2)c1-c1ccc(Cl)c(C(F)(F)F)c1 | 0.171 µM | 5.09 µM | 0.36 µM | 2.35 µM | 0.967 µM | 2.9 µM | 1.12 µM | 3.59 µM | 0.159 µM | 0.705 µM | 0.851 µM | 2.44 µM | 0.749 µM | 2.72 µM | 0.514 µM | 2.92 µM | 1.54 µM | 4.66 µM | 0.607 µM | 1.96 µM |
| COc1ccc(Nc2ccnc(N3CCN(c4ccnc5cc(Cl)ccc45)CC3)n2)cc1 | 0.705 µM | 7.25 µM | 1.03 µM | 3.27 µM | 0.884 µM | 5.23 µM | 1.25 µM | 2.84 µM | 0.485 µM | 3.27 µM | 0.768 µM | 3.28 µM | 0.968 µM | 3.26 µM | 0.576 µM | 3.92 µM | 2.62 µM | > 100 µM | 0.267 µM | 1.08 µM |
| CC(C)C[C@H](NC(=O)CCn1ccc2ccccc2c1=O)B(O)O | 5.77 µM | > 100 µM | 3.58 µM | 32.5 µM | 2.11 µM | 6.78 µM | 3.68 µM | 33.8 µM | 1.55 µM | 19.8 µM | 4.23 µM | > 100 µM | 1.61 µM | 5.62 µM | 2.93 µM | 27 µM | 4.72 µM | 81.3 µM | 3.77 µM | 19.6 µM |
| COc1cc(/C=C/c2ccc3c(Br)cc(Br)c(O)c3n2)ccc1O | 1.26 µM | 15.1 µM | 6.11 µM | 22.2 µM | 0.977 µM | 11.4 µM | 7.61 µM | 22 µM | 0.532 µM | 3.7 µM | 1.61 µM | 10.6 µM | 2.29 µM | 10.3 µM | 0.553 µM | 5.42 µM | 6.62 µM | 31.8 µM | 0.912 µM | 14.4 µM |
| COc1ccc(/C=C(/C)[N+](=O)[O-])cc1OC | 2.65 µM and 2.78 µM | 6.34 µM and 6.74 µM | 2.39 µM and 1.81 µM | 4.9 µM and 4 µM | 1.6 µM and 1.15 µM | 3.21 µM and 3.55 µM | 1.56 µM and 0.6 µM | 2.98 µM and 1.92 µM | 1.76 µM and 1.56 µM | 3.37 µM and 2.98 µM | 1.97 µM and 1.69 µM | 3.8 µM and 3.42 µM | 2.08 µM and 2.22 µM | 3.94 µM and 4.7 µM | 1.88 µM and 0.338 µM | 4.04 µM and 1.46 µM | 14.3 µM and 16.7 µM | 27.4 µM and 30.4 µM | 17.4 µM and 12.5 µM | 32.4 µM and 27.1 µM |
| O=C(CN1N=C(c2ccc(F)cc2)CCC1=O)Nc1nc2ccccc2s1 | 9.82 µM | > 100 µM | > 89.8 µM | > 100 µM | 0.179 µM | 0.344 µM | > 100 µM | > 100 µM | 46.9 µM | > 100 µM | 33.2 µM | > 100 µM | 1.7 µM | 3.19 µM | 0.583 µM | 1.76 µM | > 100 µM | > 100 µM | > 100 µM | > 100 µM |
| COc1ccc2c(-c3ccnc(Nc4cccc(OC(F)(F)F)c4)n3)cnn2n1 | 0.987 µM | > 25 µM | 1.39 µM | 17.1 µM | 1.02 µM | 6.47 µM | 1.55 µM | > 25 µM | 1.03 µM | 3.96 µM | 1.26 µM | > 12.9 µM | 0.909 µM | 3.52 µM | 0.877 µM | > 9.77 µM | 1.19 µM | 6.1 µM | 0.683 µM | > 14.8 µM |
| COc1ccc(/C=C(\C)[N+](=O)[O-])cc1OC | 2.75 µM | 7.07 µM | 1.98 µM | 3.83 µM | 1.36 µM | 2.97 µM | 1.88 µM | 3.5 µM | 1.81 µM | 3.46 µM | 1.96 µM | 3.95 µM | 1.74 µM | 3.17 µM | 1.88 µM | 3.89 µM | 13.9 µM | 27.4 µM | 17.8 µM | 32.3 µM |
| Cc1ccc(C2C3Cc4ccccc4C3=NN2c2ccc(S(=O)(=O)/N=c3\scc(-c4ccccc4)n3-c3ccccc3)cc2)cc1 (stereo not given) | 21.3 µM | 53.2 µM | 21.9 µM | 52.6 µM | 17.4 µM | 31.2 µM | 20.4 µM | 43.3 µM | 18.6 µM | > 100 µM | 30.6 µM | > 100 µM | 19.5 µM | 37.3 µM | 18.6 µM | 44.7 µM | 33.1 µM | > 100 µM | 19.1 µM | 40.1 µM |
| CCOC(=O)c1cc2c(cc1Cl)SC(=Nc1ccccc1)N(S(=O)(=O)c1ccc(Br)s1)S2(=O)=O | 14.5 µM | 32.1 µM | 15.8 µM | 43.3 µM | 11.2 µM | 24.1 µM | 13.5 µM | 30.4 µM | 14.8 µM | 30.8 µM | 15.2 µM | 35 µM | 14.3 µM | 29.3 µM | 17.5 µM | 32.8 µM | 34.5 µM | > 100 µM | 21.5 µM | 46.4 µM |
| CCc1c(C)nc2sc3c(N)ncnc3c2c1C | > 25 µM | > 25 µM | > 25 µM | > 25 µM | > 25 µM | > 25 µM | > 25 µM | > 25 µM | > 25 µM | > 25 µM | > 25 µM | > 25 µM | > 25 µM | > 25 µM | > 19.6 µM | > 25 µM | > 25 µM | > 25 µM | > 25 µM | > 25 µM |
| CSc1ccc(C2=NN(C(C)=O)C(c3ccc(-c4ccc(Cl)cc4)o3)C2)cc1 (stereo not given) | 20.1 µM | > 100 µM | 28.9 µM | > 100 µM | 32.8 µM | > 100 µM | 77 µM | > 100 µM | 18.7 µM | > 100 µM | 29.8 µM | > 100 µM | 60.2 µM | > 100 µM | 31.1 µM | > 100 µM | 28.9 µM | > 100 µM | 34 µM | > 100 µM |
